Laboratory results: ChEMBL document CHEMBL1201862, “PubChem BioAssay data set” (2004)
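Each compound was tested at five concentrations against cells in 96-well plates for 48 hours. GI50 = concentration required for 50% inhibition of growth.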 The source made the active and inactive calls. Cut-off read from the data, not from the text of the source: active = GI50 up to about 1.1 µM and inactive = higher.

Key:
Assay in all cases: DTP human tumour cell line panel, 48 h
SK-MEL-28 = system: SK-MEL-28
OVCAR-8 = system: OVCAR-8
U-251 = system: U-251
OVCAR-4 = system: OVCAR-4
LOX IMVI = system: LOX IMVI
NCI-H226 = system: NCI-H226
COLO 205 = system: COLO 205
SK-MEL-5 = system: SK-MEL-5
HCT-116 = system: HCT-116
A549 = system: A549
SW-620 = system: SW-620
SN12C = system: SN12C
OVCAR-3 = system: OVCAR-3
NCI-H23 = system: NCI-H23
SK-OV-3 = system: SK-OV-3
SF-539 = system: SF-539
K562 = system: K562
SNB-19 = system: SNB-19
CCRF-CEM = system: CCRF-CEM
EKVX = system: EKVX

Row | SMILES | GI50 (SK-MEL-28) | GI50 (OVCAR-8) | GI50 (U-251) | GI50 (OVCAR-4) | GI50 (LOX IMVI) | GI50 (NCI-H226) | GI50 (COLO 205) | GI50 (SK-MEL-5) | GI50 (HCT-116) | GI50 (A549) | GI50 (SW-620) | GI50 (SN12C) | GI50 (OVCAR-3) | GI50 (NCI-H23) | GI50 (SK-OV-3) | GI50 (SF-539) | GI50 (K562) | GI50 (SNB-19) | GI50 (CCRF-CEM) | GI50 (EKVX)
1 | O=S(=O)(CCBr)CCBr | 2.67 µM (inactive) | 2.32 µM (inactive) | 15.7 µM (inactive) | 9.57 µM (inactive) | 7.67 µM (inactive) | 19.2 µM (inactive) | 3.21 µM (inactive) | 7.35 µM (inactive) | 3.37 µM (inactive) | 13.9 µM (inactive) | 2.23 µM (inactive) | 9.02 µM (inactive) | 3.67 µM (inactive) | 6.52 µM (inactive) | 19.3 µM (inactive) | 6.22 µM (inactive) | 3.98 µM (inactive) | 17.6 µM (inactive) | 2.96 µM (inactive) | –
2 | N#CCCN(CCC#N)c1ccc(/C=C2\N=C(c3cc([N+](=O)[O-])ccc3Cl)N(S(=O)(=O)c3ccccc3)C2=O)cc1 | > 100 µM (inactive) | > 100 µM (inactive) | > 100 µM (inactive) | > 100 µM (inactive) | > 100 µM (inactive) | > 100 µM (inactive) | > 100 µM (inactive) | > 100 µM (inactive) | > 100 µM (inactive) | > 100 µM (inactive) | > 100 µM (inactive) | > 100 µM (inactive) | > 100 µM (inactive) | > 100 µM (inactive) | > 100 µM (inactive) | > 100 µM (inactive) | > 100 µM (inactive) | > 100 µM (inactive) | > 100 µM (inactive) | > 100 µM (inactive)
3 | COc1ccc(CNc2nc3cc(C(F)(F)F)ccc3nc2C(=O)O)cc1OC | 67 µM (inactive) | 42.6 µM (inactive) | 24.3 µM (inactive) | 48.2 µM (inactive) | 33.7 µM (inactive) | 64.1 µM (inactive) | 22.5 µM (inactive) | 20.8 µM (inactive) | 29 µM (inactive) | 35.6 µM (inactive) | 43.5 µM (inactive) | 26.8 µM (inactive) | 22.3 µM (inactive) | 33.4 µM (inactive) | 29.7 µM (inactive) | 32.5 µM (inactive) | 24.4 µM (inactive) | 29.6 µM (inactive) | 18.4 µM (inactive) | 31.8 µM (inactive)
4 | CC(=O)N1C(=O)/C(=C\C(=O)c2ccc(Cl)cc2)c2ccccc21 | 14 µM (inactive) | 14.1 µM (inactive) | 15.5 µM (inactive) | 16.7 µM (inactive) | 2.3 µM (inactive) | 19.9 µM (inactive) | 9.44 µM (inactive) | 19.2 µM (inactive) | 9.29 µM (inactive) | 13.5 µM (inactive) | 4.24 µM (inactive) | 15.3 µM (inactive) | 10.1 µM (inactive) | 15.6 µM (inactive) | 22.8 µM (inactive) | 12.2 µM (inactive) | 12 µM (inactive) | 24.8 µM (inactive) | 2.61 µM (inactive) | 17.6 µM (inactive)
5 | CC(=O)O[C@H]1CC[C@@]2(C)C(=CC[C@H]3[C@@H]4C[C@H](N5CCN(C)CC5)[C@H](OC(C)=O)[C@@]4(C)CC[C@@H]32)C1 | 12.5 µM (inactive) | 15.6 µM (inactive) | 19.7 µM (inactive) | 17.6 µM (inactive) | 3.03 µM (inactive) | 28.9 µM (inactive) | 17.1 µM (inactive) | 3.53 µM (inactive) | 12.9 µM (inactive) | 18.5 µM (inactive) | 15.5 µM (inactive) | 24 µM (inactive) | 8.47 µM (inactive) | 22.9 µM (inactive) | > 47.2 µM (inactive) | 4.26 µM (inactive) | 1.91 µM (inactive) | 21.9 µM (inactive) | 3.98 µM (inactive) | 20.7 µM (inactive)
6 | Fc1nc(F)nc(-c2c3ccccc3c3n2CCS3)n1 | > 100 µM (inactive) | – | 29 µM (inactive) | 98.9 µM (inactive) | 61.4 µM (inactive) | > 100 µM (inactive) | > 100 µM (inactive) | 50.1 µM (inactive) | 65.5 µM (inactive) | > 100 µM (inactive) | > 100 µM (inactive) | > 100 µM (inactive) | > 100 µM (inactive) | > 100 µM (inactive) | > 100 µM (inactive) | > 100 µM (inactive) | 47.5 µM (inactive) | > 100 µM (inactive) | 33.1 µM (inactive) | > 100 µM (inactive)
7 | CC(=O)C(=O)NC1/C=C(C)\C=C/C(O)C/C=C(C)\C=C/C(O)CC2OC(=O)C1(C)C(=O)C2C (stereo not given) | > 100 µM (inactive) | > 100 µM (inactive) | > 100 µM (inactive) | > 100 µM (inactive) | > 100 µM (inactive) | > 100 µM (inactive) | > 62.2 µM (inactive) | > 100 µM (inactive) | > 100 µM (inactive) | > 100 µM (inactive) | > 100 µM (inactive) | > 100 µM (inactive) | > 100 µM (inactive) | > 100 µM (inactive) | > 100 µM (inactive) | > 100 µM (inactive) | > 61.1 µM (inactive) | > 100 µM (inactive) | > 76.7 µM (inactive) | > 100 µM (inactive)
8 | CSc1nc(NC2OC(CO)C(O)C(O)C2O)c(N)c(=O)n1C (stereo not given) | > 100 µM (inactive) | > 100 µM (inactive) | > 100 µM (inactive) | > 100 µM (inactive) | > 100 µM (inactive) | > 100 µM (inactive) | > 100 µM (inactive) | > 100 µM (inactive) | > 100 µM (inactive) | > 100 µM (inactive) | > 100 µM (inactive) | > 100 µM (inactive) | > 100 µM (inactive) | > 100 µM (inactive) | > 100 µM (inactive) | > 100 µM (inactive) | > 100 µM (inactive) | > 100 µM (inactive) | > 100 µM (inactive) | > 100 µM (inactive)
9 | CCCCN(CCCC)C(=O)C(=O)C(C(=O)C(=O)OC)c1nc2ccccc2o1 (stereo not given) | > 100 µM (inactive) | > 100 µM (inactive) | 90.6 µM (inactive) | > 100 µM (inactive) | 44.8 µM (inactive) | > 100 µM (inactive) | > 100 µM (inactive) | 62.7 µM (inactive) | 67.9 µM (inactive) | > 100 µM (inactive) | 87.5 µM (inactive) | > 100 µM (inactive) | 78.5 µM (inactive) | > 100 µM (inactive) | > 100 µM (inactive) | > 100 µM (inactive) | 65.9 µM (inactive) | > 100 µM (inactive) | 34.8 µM (inactive) | –
10 | CNC(=S)N/N=C(/C)CCC/C(C)=N/NC(=S)NC | > 34.6 µM (inactive) | 57.4 µM (inactive) | > 42.1 µM (inactive) | 1.69 µM (inactive) | 1.8 µM (inactive) | > 61.7 µM (inactive) | 0.308 µM (active) | 16.4 µM (inactive) | – | 5.45 µM (inactive) | – | > 74.5 µM (inactive) | 0.411 µM (active) | > 100 µM (inactive) | > 100 µM (inactive) | > 100 µM (inactive) | 0.408 µM (active) | > 100 µM (inactive) | 0.145 µM (active) | 0.778 µM (active)
11 | O=C(O)CSc1nnc(/C=C/c2ccccc2)[nH]1 | > 100 µM (inactive) | > 100 µM (inactive) | > 100 µM (inactive) | > 100 µM (inactive) | > 61.2 µM (inactive) | > 100 µM (inactive) | > 100 µM (inactive) | > 100 µM (inactive) | > 100 µM (inactive) | > 100 µM (inactive) | > 57.5 µM (inactive) | > 100 µM (inactive) | > 100 µM (inactive) | > 100 µM (inactive) | > 100 µM (inactive) | > 100 µM (inactive) | > 100 µM (inactive) | > 100 µM (inactive) | > 100 µM (inactive) | > 100 µM (inactive)
12 | C[n+]1ccc(Nc2ccc(NC(=O)c3ccc(Nc4cc[n+](C)c5ccc([N+](=O)[O-])cc45)cc3[N+](=O)[O-])cc2)cc1 | 25.9 µM (inactive) | 31.7 µM (inactive) | 22.6 µM (inactive) | 51.2 µM (inactive) | > 68.2 µM (inactive) | > 56.1 µM (inactive) | 14 µM (inactive) | 24.1 µM (inactive) | 31.1 µM (inactive) | 22.5 µM (inactive) | > 100 µM (inactive) | 57.4 µM (inactive) | 18.9 µM (inactive) | > 55.6 µM (inactive) | 60.3 µM (inactive) | 22.8 µM (inactive) | 14.3 µM (inactive) | > 73.3 µM (inactive) | 24.4 µM (inactive) | 45.7 µM (inactive)
